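All cell lines were grown in 96-well plates and treated with compound for 48 hours. Abbreviation: GI50, concentration required for 50% inhibition of growth. At the TGI there is no net growth.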
What was measured:
Test in all cases: growth of human tumour cells (NCI), 48 h
[1] = test system: EKVX NSCLC
[2] = test system: COLO 205 colon
[3] = test system: A498 renal
[4] = test system: BT-549 breast
[5] = test system: M14 melanoma
[6] = test system: HCC-2998 colon
[7] = test system: MDA-MB-468 breast
[8] = test system: MDA-MB-435
[9] = test system: SK-OV-3 ovarian
[10] = test system: NCI-H226 lung
[11] = test system: SF-295 CNS
[12] = test system: HS 578T breast
[13] = test system: ACHN renal
[14] = test system: UACC-62 melanoma
[15] = test system: KM12 colon
[16] = test system: HOP-92 NSCLC
[17] = test system: PC-3 prostate
[18] = test system: OVCAR-4 ovarian
[19] = test system: HL-60(TB) leukemia
[20] = test system: K-562 leukemia
[21] = test system: SN12C renal
[22] = test system: CAKI-1 renal
[23] = test system: MCF7 breast
[24] = test system: SK-MEL-28 melanoma
[25] = test system: T-47D breast
[26] = test system: NCI-H460 lung
[27] = test system: SK-MEL-2 melanoma
[28] = test system: MDA-MB-231 breast
[29] = test system: NCI-H522 lung
[30] = test system: HCT-15 colon
[31] = test system: NCI/ADR-RES ovarian
[32] = test system: SF-539 CNS
[33] = test system: SW-620 colon
[34] = test system: HOP-62 NSCLC
[35] = test system: DU-145 prostate
[36] = test system: MALME-3M melanoma
[37] = test system: CCRF-CEM leukemia
[38] = test system: NCI-H23 lung
[39] = test system: OVCAR-3 ovarian
[40] = test system: RPMI-8226 leukemia
[41] = test system: SK-MEL-5 melanoma
[42] = test system: OVCAR-5 ovarian
[43] = test system: SNB-19 CNS
[44] = test system: IGROV1 ovarian
[45] = test system: SF-268 CNS
[46] = test system: OVCAR-8 ovarian
[47] = test system: UO-31 renal
[48] = test system: HT29 colon
[49] = test system: RXF 393 renal
[50] = test system: A549 NSCLC
[51] = test system: SNB-75 CNS
[52] = test system: MOLT-4 leukemia
[53] = test system: 786-0 renal
[54] = test system: TK-10 renal
[55] = test system: LOX IMVI melanoma
[56] = test system: U251 CNS
[57] = test system: HCT-116 colon
[58] = test system: UACC-257 melanoma

COc1ccc(-c2nc3cc(C)ccc3n2CC(=O)N=Nc2c(O)[nH]c3ccccc23)cc1
GI50 [1]: 3.67 µM
TGI [1]: 15.5 µM
GI50 [2]: 3.73 µM
TGI [2]: 14 µM
GI50 [3]: 11.8 µM
TGI [3]: 25.7 µM
GI50 [4]: 1770 nM
TGI [4]: 4.98 µM
GI50 [5]: 2310 nM
TGI [5]: 5.4 µM
GI50 [6]: 13.1 µM
TGI [6]: 26.1 µM
GI50 [7]: 2260 nM
TGI [7]: 5.87 µM
GI50 [8]: 2470 nM
TGI [8]: 6.24 µM
GI50 [9]: 2320 nM
TGI [9]: 6.06 µM
GI50 [10]: 1880 nM
TGI [10]: 4.13 µM
GI50 [11]: 5.4 µM
TGI [11]: 18.8 µM
GI50 [12]: 2270 nM
TGI [12]: 7.12 µM
GI50 [13]: 3.03 µM
TGI [13]: 11.9 µM
GI50 [14]: 2140 nM
TGI [14]: 6.96 µM
GI50 [15]: 3.96 µM
TGI [15]: 16 µM
GI50 [16]: 1940 nM
TGI [16]: 6.3 µM
GI50 [17]: 2420 nM
TGI [17]: 7.01 µM
GI50 [18]: 2170 nM
TGI [18]: 5.41 µM
GI50 [19]: 5.5 µM
TGI [19]: 29.2 µM
GI50 [20]: 3.23 µM
TGI [20]: 43.5 µM
GI50 [21]: 1710 nM
TGI [21]: 3.83 µM
GI50 [22]: 2860 nM
TGI [22]: 11.6 µM
GI50 [23]: 2170 nM
TGI [23]: 5.7 µM
GI50 [24]: 1710 nM
TGI [24]: 3.26 µM
GI50 [25]: 3.15 µM
TGI [25]: 17.8 µM
GI50 [26]: 2170 nM
TGI [26]: 4.87 µM
GI50 [27]: 10.3 µM
TGI [27]: 23.5 µM
GI50 [28]: 2060 nM
TGI [28]: 4.64 µM
GI50 [29]: 4.68 µM
TGI [29]: 19.5 µM
GI50 [30]: 3.66 µM
TGI [30]: 14.5 µM
GI50 [31]: 2580 nM
TGI [31]: 6.66 µM
GI50 [32]: 1670 nM
TGI [32]: 3.08 µM
GI50 [33]: 3.03 µM
TGI [33]: 16.3 µM
GI50 [34]: 3.7 µM
TGI [34]: 18.2 µM
GI50 [35]: 3.57 µM
TGI [35]: 14 µM
GI50 [36]: 2170 nM
TGI [36]: 4.42 µM
GI50 [37]: 3.54 µM
TGI [37]: 17.4 µM
GI50 [38]: 4.15 µM
TGI [38]: 15.8 µM
GI50 [39]: 1850 nM
TGI [39]: 4.14 µM
GI50 [40]: 6.69 µM
TGI [40]: 28.8 µM
GI50 [41]: 2610 nM
TGI [41]: 10.6 µM
GI50 [42]: 2400 nM
TGI [42]: 8.1 µM
GI50 [43]: 4.11 µM
TGI [43]: 15.3 µM
GI50 [44]: 11.9 µM
TGI [44]: 25 µM
GI50 [45]: 2520 nM
TGI [45]: 9.61 µM
GI50 [46]: 2190 nM
TGI [46]: 4.87 µM
GI50 [47]: 12.2 µM
TGI [47]: 24.8 µM
GI50 [48]: 1820 nM
TGI [48]: 3.52 µM
GI50 [49]: 1550 nM
TGI [49]: 3.71 µM
GI50 [50]: 1880 nM
TGI [50]: 4.02 µM
GI50 [51]: 1550 nM
TGI [51]: 4.33 µM
GI50 [52]: 3.65 µM
TGI [52]: 15.8 µM
GI50 [53]: 12.7 µM
TGI [53]: 26 µM
GI50 [54]: 10.5 µM
TGI [54]: 23.7 µM
GI50 [55]: 6.32 µM
TGI [55]: 20.8 µM
GI50 [56]: 2860 nM
TGI [56]: 9.2 µM
GI50 [57]: 1860 nM
TGI [57]: 3.71 µM
GI50 [58]: 2380 nM
TGI [58]: 6.76 µM

— PubChem BioAssay (NCI)
